Literature values as cited in patent US20160101176A1, “POLYMERIC HYDROGEL PHARMACEUTICAL COMPOSITIONS WITH ON-DEMAND RELEASE OF A DRUG IN RESPONSE TO A ELECTRICAL STIMULUS” (UNIVERSITY OF THE WITWATERSRAND, JOHANNESBURG, priority 2013, published 2016).

Assays:
[1] = rat's cardio-vascular system; Elahi et al., 2009
[2] = tested on: plasma proteins; conditions: Raveendran et al., 1992

For `COc1ccc2c(c1)c(CC(=O)O)c(C)n2C(=O)c1ccc(Cl)cc1` [indomethacin], the t1/2 [1] is given as 7 to 10 h and the protein binding [2] is given as “highly protein bound”.
